In ChEMBL document CHEMBL1131242, “6beta-Acetoxynortropane: a potent muscarinic agonist with apparent selectivity toward M2-receptors” (J Med Chem, 1998) one finds inhibition data, which are given here for one compound.

The term inhibition denotes the relative decrease from the control value, in per cent. The low end stands for a response near the control, the high end for a response far below the control.

Test [1] deals with Muscarinic acetylcholine receptor M3 (Homo sapiens, UniProt P20309). Nature of the test: Inhibition of binding of [3H]quinuclidinyl benzilate to human Muscarinic acetylcholine receptor M3 in membranes of transfected CHO cells at 100 uM concentration. To be noted: Membrane.
For test [2], the target named is Muscarinic acetylcholine receptor M1 (Homo sapiens) (UniProt P11229). The test can be described thus: Inhibition of binding of [3H]quinuclidinyl benzilate to human Muscarinic acetylcholine receptor M1 in membranes of transfected CHO cells at 300 uM concentration. To be noted: Membrane.
Sequence of Muscarinic acetylcholine receptor M1 (Homo sapiens) (P11229 whole entry, looked up): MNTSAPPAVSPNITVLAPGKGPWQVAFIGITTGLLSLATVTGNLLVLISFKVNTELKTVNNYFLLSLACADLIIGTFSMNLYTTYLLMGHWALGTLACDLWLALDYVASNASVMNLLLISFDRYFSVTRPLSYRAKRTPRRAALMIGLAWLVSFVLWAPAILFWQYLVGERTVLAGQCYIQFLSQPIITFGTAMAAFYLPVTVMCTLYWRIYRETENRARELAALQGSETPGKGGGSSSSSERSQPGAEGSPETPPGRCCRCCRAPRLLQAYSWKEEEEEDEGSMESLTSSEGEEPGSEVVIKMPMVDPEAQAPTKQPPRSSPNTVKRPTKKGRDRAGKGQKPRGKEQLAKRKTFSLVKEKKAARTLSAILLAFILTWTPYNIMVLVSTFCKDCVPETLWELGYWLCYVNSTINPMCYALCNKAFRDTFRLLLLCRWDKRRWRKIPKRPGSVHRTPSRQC

Sequence of Muscarinic acetylcholine receptor M3 (P20309 whole entry, looked up): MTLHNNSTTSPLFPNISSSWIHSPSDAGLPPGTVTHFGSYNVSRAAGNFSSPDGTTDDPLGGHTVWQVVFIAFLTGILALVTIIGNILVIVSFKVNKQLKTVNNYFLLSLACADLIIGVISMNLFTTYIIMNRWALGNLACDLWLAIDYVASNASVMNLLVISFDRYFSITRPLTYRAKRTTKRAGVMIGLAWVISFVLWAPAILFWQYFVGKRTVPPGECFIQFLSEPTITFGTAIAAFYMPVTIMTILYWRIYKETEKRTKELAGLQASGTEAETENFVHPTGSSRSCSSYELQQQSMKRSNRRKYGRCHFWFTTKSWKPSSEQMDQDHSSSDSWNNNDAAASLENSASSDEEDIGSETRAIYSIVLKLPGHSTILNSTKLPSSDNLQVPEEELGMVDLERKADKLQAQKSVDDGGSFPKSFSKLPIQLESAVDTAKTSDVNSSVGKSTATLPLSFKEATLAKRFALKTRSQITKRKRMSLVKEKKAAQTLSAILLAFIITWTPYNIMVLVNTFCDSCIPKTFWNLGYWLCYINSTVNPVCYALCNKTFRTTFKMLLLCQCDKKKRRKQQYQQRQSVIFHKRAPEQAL

For `CC(=O)OC(C)C[N+](C)(C)C` (configuration not stated) [METHACHOLINE], the inhibition in test [1] was found to be 34%; in test [2], 8%.
